In patent US20240139154A1, “Methods of Reducing Risk of Prostate Cancer Progression” (Astellas Pharma Inc., priority 2021, published 2024):
Where two headings read alike, the source gives them in different places.

Legend:
[1] = test system: low risk or intermediate risk prostate cancer; assay: ENACT study: biopsy outcomes (negative biopsies, percentage of cancer-positive cores) at 1 and 2 years; format: in vivo, human
Text: This was followed by a one year follow up period, and a further continued follow-up period of at least one-year, until the last patient completed the 24-month visit.
(§1) Secondary endpoints were (1) Incidence of negative biopsies for cancer at 1 year and 2 years; (2) percentage of cancer-positive cores at 1 year and 2 years; (3) time to PSA progression; and (4) incidence of a secondary rise in serum PSA at 1 year and 2 years. “PSA progression” is defined as a ≥25% increase in serum PSA from baseline, a ≥25% increase above nadir, or an absolute increase of ≥2 ng/mL.
(§2) Secondary endpoint of incidence of negative biopsy for cancer was summarized using frequencies and percentages at one and two years by treatment groups. […] Analysis of time to PSA progression was performed using the same method used to analyze the primary endpoint. P-values were adjusted using the Bonferroni-Holm method to control type I error at 0.05 for selected secondary endpoints.

[2] = test system: serum PSA; assay: ENACT study: time to PSA progression and secondary rise in serum PSA; format: in vivo, human; conditions: for Hazard Ratio (95% CI), time to PSA progression: Cox regression
Description: as §1, §2

[3] = ENACT study: adverse events (safety set); format: in vivo, human
Text: The full analysis set (FAS) was the patients who were enrolled in the study and randomized to one or the other of the study arms. The safety set (SAF) was redefined in the Statistical Analysis Plan (SAP) to include only subjects who took the study drug. The FAS was 227 patients (113 in the active surveillance arm, 114 in the enzalutamide arm). The SAF had 112 subjects in the enzalutamide arm.
As expected, the incidence of Drug-Related Adverse Events (AEs) were reported in 92.0% (103/112) of the enzalutamide patients during the treatment period plus 30 days. Of the patients on active surveillance, 54.9% (62/113) experienced an adverse event from randomization until date completed 12 months on study plus 30 days. The most common Drug-Related AE seen in the enzalutamide group was fatigue (52.7%). Adverse events which occurred in ≥3.5% of enzalutamide patients were fatigue (55.4%), gynecomastia (36.6%), nipple pain (30.4%), breast tenderness (25.9%), and erectile dysfunction (17.9%). The only AE that occurred in ≥3.5% of the patients on active surveillance was hypertension (7.1%). […] Observed AE data were consistent with the known safety profile of enzalutamide.

[4] = test system: low risk or intermediate risk prostate cancer; conditions: for Hazard Ratio (95% CI), time to prostate cancer progression: enzalutamide/AS, Cox regression, HR<1 favors enzalutamide
[5] = ENACT study: adverse events (safety set); format: in vivo, human; conditions: During 1-year continued follow-up period, n = 112

SMILES: CNC(=O)c1ccc(N2C(=S)N(c3ccc(C#N)c(C(F)(F)F)c3)C(=O)C2(C)C)cc1F [enzalutamide, Enzalutamide]
- Percentage of cancer-positive cores at 1 year, LS mean change from baseline ± SE ([1]; 1 year, n = 90): −12.97 ± 1.99%
- Biopsy result at 1 year: Positive, % ([1]; 1 year, n = 114): (46.5) %
- Biopsy result at 1 year: Unknown, % ([1]; 1 year, n = 114): (18.4) %
- Incidence of negative biopsy at 1 year: Negative, % ([1]; 1 year, n = 114): 35.1%
- Percentage of cancer-positive cores at 2 years, LS mean change from baseline ± SE ([1]; 2 years, n = 53): −6.68 ± 2.37%
- Biopsy result at 2 years: Positive, % ([1]; 2 years, n = 100): (47.0) %
- Biopsy result at 2 years: Unknown, % ([1]; 2 years, n = 100): (34.0) %
- Incidence of negative biopsy at 2 years: Negative, % ([1]; 2 years, n = 100): 19.0%
- reduction in the mean percentage of cancer-positive cores within the enzalutamide arm ([1]; between baseline and year two): 6.7%
- Percentage of cancer-positive cores at 1 year, Difference in LS means ± SE ([1]; enzalutamide vs AS, 1 year): −10.07 ± 2.40%
- Percentage of cancer-positive cores at 2 years, Difference in LS means ± SE ([1]; enzalutamide vs AS, 2 years): −5.15 ± 3.17%
- OR (95% CI), negative biopsy at 1 year ([1]; enzalutamide vs AS, exact logistic regression, 1 year): 3.5 (1.76, 6.92)
- OR (95% CI), negative biopsy at 2 years ([1]; enzalutamide vs AS, exact logistic regression, 2 years): 1.6 (0.66, 4.00)
- OR (95% CI), negative biopsy at 2 years ([1]; enzalutamide vs AS, exact logistic regression, 2 years, listed as Enzalutamide): 1.6 (0.66, 4.00)
- likelihood of a negative biopsy at one year compared to the control population ([1]; one year): at least three times more likely
- Incidence of a secondary rise in serum PSA at 1 year, PSA response, % ([2]; 1 year, n = 114): (24.6) %
- Incidence of a secondary rise in serum PSA at 2 years, PSA response, % ([2]; 2 years, n = 100): (92.0) %
- Median Time to PSA Progression (95% CI) ([2]; FAS, Kaplan-Meier): 14.82
- No. Censored (time to PSA progression), % ([2]; FAS, N = 114): 15.8%
- No. of Events (PSA progression), % ([2]; FAS, N = 114): 84.2%
- OR (95% CI), secondary rise in serum PSA at 1 year ([2]; enzalutamide vs AS, 1 year): 0.1 (0.08, 0.26)
- OR (95% CI), secondary rise in serum PSA at 2 years ([2]; enzalutamide vs AS, 2 years): 1.1 (0.37, 3.53)
- Hazard Ratio (95% CI), time to PSA progression ([2]; enzalutamide vs AS, FAS): 0.714 (0.525, 0.972)
- Hazard Ratio (95% CI), time to PSA progression ([2]; enzalutamide vs AS, FAS, listed as Enzalutamide): 0.71 (0.53, 0.97)
- Time to PSA progression, Median (95% CI) ([2]; n = 114): 14.8 months
- PSA rebound following cessation of treatment ([2]; observed at month 15 onwards): PSA rebound was demonstrated
- delay of PSA progression ([2]; versus AS): 6 months
- AEs leading to death, % ([3]; During 1-year treatment period, n = 112): 0.9%
- most common Drug-Related AE: fatigue ([3]; human, in vivo): 52.7%
- Drug-related AEs leading to discontinuation of study drug, % ([3]; human, in vivo, 1 year): 7.1%
- Drug-related AEs ≥ grade 3, % ([3]; human, in vivo, 1 year): 5.4%
- Drug-related AEs, % ([3]; human, in vivo, 1 year): 88.4%
- Drug-related SAEs, % ([3]; human, in vivo, 1 year): 2.7%
- TEAEs ≥ grade 3, % ([3]; human, in vivo, 1 year): 9.8%
- Adverse Event: Alopecia, % ([3]; human, in vivo, 12 months): (9.8%)
- Adverse Event: Hypertension, % ([3]; human, in vivo, 12 months): (7.1%)
- Adverse Event: Libido Decreased, % ([3]; human, in vivo, 12 months): (8.0%)
- tolerability of enzalutamide monotherapy ([3]; in vivo): well-tolerated
- Median Progression Free Survival / median time to pathological or therapeutic prostate cancer progression ([4]; FAS, Kaplan-Meier, NR = not reached): not reached
- No. Censored (progression free survival), % ([4]; FAS, N = 114): 71.9%
- No. of Events (prostate cancer progression), % ([4]; FAS, N = 114, 160 mg/day): 28.1%
- reduction in risk of prostate cancer progression ([4]; compared to patients on active surveillance): 46%
- Hazard Ratio (95% CI), time to prostate cancer progression ([4]; FAS): 0.542 (0.330, 0.892)
- Hazard Ratio (95% CI), time to prostate cancer progression ([4]; FAS, listed as Enzalutamide): 0.54 (0.33, 0.89)
- AEs leading to death, % [5]: 1.8%
